Literature values in patent US20170094967A1, “OIL PALM FRUIT APPLICATION METHODS” (Valent BioSciences Corporation, priority 2015, published 2017).

Tested on: oil palms
Conditions: applied before harvest directly to the fruit

Structure (SMILES) | oil yield of oil palm fruit
NCCO/C=C/[C@H](N)C(=O)O (stereo in doubt) [AVG, [S]-trans-2-amino-4-(2-aminoethoxy)-3-butenoic acid] | increases the oil yield
CC1=CC1 [1-MCP, 1-methylcyclopropene] | increases the oil yield
